The test system of this experiment is K562 cells. The experiment in a line: γH2AX immunofluorescence, K562. Format: cell-based, human. As to the method: Cells were seeded at densities of 1×10^6/mL in 24 well culture (Nalge Nunc, New York, USA) and treated with hydroxytyrosol (0, 20, 100 μM), for 24 hours at 37° C., 5% (v/v) CO2. Cells were then stained and quantified for the number of γH2AX foci per cell nuclei. Briefly, using cytofunnels and filter cards, aliquots of […] were cytospun (Shandon, Inc.) for 5 minutes at 500 rpm onto Poly-o-lysine slides (Menzel-Glaser, Germany). All cells were then fixed for 10 minutes with 4% paraformaldehyde (Sigma-Aldrich, USA), washed once for five minutes with PBS without calcium and magnesium and permeabilized using 0.1% Triton X-100(Sigma-Aldrich, USA) for 10 minutes at room temperature. […]
Images were acquired using a Zeiss LSM 510 Meta laser confocal microscope fitted with a Z-stage motor and 63× oil plan apochromat objective with a refractive index of 1.40. […] Images required for γH2AX quantification were acquired in 512×512 pixel format and loaded into Image J (Fiji version 1.44a). […]
Image J software was used for the quantification of foci in all experiments. […] Now clearly defined nuclear regions were selected, numbers of foci were quantified by using the find maxima tool. […] Foci were now quantified as a total number for all cells selected. The average number of foci per nucleus was calculated and recorded into Excel spread sheets (Microsoft, Redmond, Wash., USA). […]

As for `OCCc1ccc(O)c(O)c1` [HT, 4-(2-hydroxyethyl)-1,2-benzenediol], under “K562, 0, 20, 100 μM, 24 hours”, the “DNA double-strand breaks (γH2AX accumulation)” value is reported as “induces significant DNA-double strand breaks”. Besides, the “effect on DNA damage by anti-cancer modalities (doxorubicin, vinblastine, mitomycin C, UVA, γ-radiation)” value (K562, 100 μM hydroxytyrosol pre-treatment 24 hours) is on record as “enhances the DNA damaging effects”.

These data come from patent US10231939B2, “Hydroxytyrosol and oleuropein compositions for induction of DNA damage, cell death and LSD1 inhibition” (priority 2012, dated 2019).
